How the values were obtained:
HEL [1] = experiment: Antiviral activity was measured as effective concentration required to reduce Varicella Zoster virus (OKA)-induced plaque formation in human embryonic lung cells; format: functional, cell-based
HEL [2] = experiment: Antiviral activity was measured as effective concentration required to reduce thymidine kinase-deficient. Varicella Zoster virus (YS/R)-induced plaque formation in human embryonic lung cells; format: functional, cell-based
HEL [3] = experiment: Cytotoxic concentration required to inhibit growth of human embryonic lung cells (HEL); format: functional
HEL [4] = experiment: Antiviral activity was measured as effective concentration required to reduce Varicella Zoster virus (YS)-induced plaque formation in human embryonic lung cells; format: functional, cell-based
HEL [5] = experiment: Minimal cytotoxic concentration required to alter microscopically detectable cell (of human embryonic lung cells (HEL)) morphology; format: functional
HEL [6] = experiment: Antiviral activity was measured as effective concentration required to reduce thymidine kinase-deficient. Varicella Zoster virus (07/1)-induced plaque formation in human embryonic lung cells; format: functional, cell-based

Row | SMILES | EC50 (HEL [1]) [nM] | EC50 (HEL [2]) [nM] | CC50 (HEL [3]) [nM] | EC50 (HEL [4]) [nM] | MCC (HEL [5]) [µM] | EC50 (HEL [6]) [nM]
1 | CCCCCCc1cc2cn([C@H]3C[C@H](O)[C@@H](CO)O3)c(=O)nc2s1 | 140 | ≥ 50000 | > 200000 | 140 | 125 | ≥ 50000
2 | CCCCc1cc2cn([C@H]3C[C@H](O)[C@@H](CO)O3)c(=O)nc2s1 | 160 | 153000 | > 200000 | 150 | ≥ 100 | ≥ 200000
3 | CCCCCCCCCCc1cc2cn([C@H]3C[C@H](O)[C@@H](CO)O3)c(=O)nc2o1 | 15 | > 50000 | > 50000 | 8 | > 50 | > 50000
4 | CCCCCCCCCCc1cc2cn([C@H]3C[C@H](O)[C@@H](CO)O3)c(=O)nc2s1 | 30 | > 5000 | 54000 | 60 | 20 | > 5000
5 | CCCCCCCCCCCCc1cc2cn([C@H]3C[C@H](O)[C@@H](CO)O3)c(=O)nc2s1 | 200 | > 5000 | 49000 | 300 | 12 | > 5000
6 | CCCCCCCCCc1cc2cn([C@H]3C[C@H](O)[C@@H](CO)O3)c(=O)nc2s1 | 10 | > 20000 | > 20000 | 10 | > 20 | > 20000
7 | CCCCCCCCc1cc2cn([C@H]3C[C@H](O)[C@@H](CO)O3)c(=O)nc2s1 | 2 | > 5000 | 53000 | 5 | 20 | ≥ 5000
8 | Nc1nc2c(ncn2COCCO)c(=O)[nH]1 [ACYCLOVIR] | 1100 | 44000 | > 400000 | 1500 | > 200 | 40000

Source: ChEMBL document CHEMBL1133962, “Bicyclic anti-VZV nucleosides: Thieno analogues retain full antiviral activity” (Bioorg Med Chem Lett, 2001)
